Measurements reported in patent US20240389600A1 (The United States of America, as represented by the …, priority 2023, published 2024).
Like-named read-outs stand apart in the source and are kept apart here.

Tests used:
Georgia-06G peanut seeds [1] = details: 3% H2O2 replaced every 24 h, seed to liquid 1:8 w/v, 20° C., 72 h, Georgia-06G (2021 harvest)
Georgia-06G peanut seeds [2] = details: 20° C.
Georgia-06G peanut seeds [3] = test: Static incubation of hydrated peanut seeds with H2O2; resveratrol content by HPLC; details: for resveratrol content in seeds: 48 and 72-h incubation

## OO [H2O2, hydrogen peroxide]
Georgia-06G peanut seeds [1]
  resveratrol concentration: 600 µg/g
Georgia-06G peanut seeds [2]; 2% H2O2, in-shaker, after 72 h, Georgia-06G 2021
  resveratrol accumulation: exceeding 300 μg/g of seed dry weight
Georgia-06G peanut seeds [2]; 3% H2O2 replaced every 24 h, seed to liquid 1:4 w/v, shaker, 72 h, Georgia-06G (2021 harvest)
  resveratrol concentration: 400 µg/g
Georgia-06G peanut seeds [2]; 3 portions of 3% H2O2 (new charge every 24 h), shaker, 72 h, Georgia-06G 2021
  concentration of resveratrol in seed extract chromatogram: 334 μg/g of dry weight
Georgia-06G peanut seeds [3]; 2% H2O2, 20° C., Georgia-06G (2021 harvest), FIG. 13
  resveratrol content in seeds: 100 to 200 µg/g
Georgia-06G peanut seeds [3]; 2% H2O2, 20° C., static, acidic conditions, Georgia-06G 2020 harvest
  resveratrol production under moderate acidic conditions: almost completely blocked resveratrol production
Georgia-06G peanut seeds [3]; 3% H2O2, static, 15° C., after 72 and 96 h, Georgia-06G (2021 harvest)
  levels of resveratrol in seeds: 20 to 50 µg/g
Georgia-06G peanut seeds [3]; static, 20° C., Georgia-06G (2021 harvest), FIG. 11C
  resveratrol content in seeds: 50 to 100 µg/g
Georgia-06G peanut seeds [3]; static, 20° C., seeds to H2O2 1:6 w/v, Georgia-06G 2021
  concentration of H2O2 that damages seeds (overall production of resveratrol drops, particularly after 72 h): above 4%
